Measurements taken from patent publication US12414960B2, “Analogues of oleuropein and oleacein and uses thereof” (Attica Sciences Ltd., priority 2020, dated 2025).

Tests used:
PANC-1 cancer cells = experiment: Cell Titer-Glo cell viability assay, PANC-1; format: cell-based, human; conditions: 5 μM, 24 hours; compared with SB204990 and BMS303141
Excerpt: The CellTiter-Glo® Luminescent Cell Viability Assay (Promega Corporation; Madison, WI) is a homogeneous method of determining the number of viable cells in culture based on quantitation of the ATP present, an indicator of metabolically active cells. The homogeneous assay procedure involves adding the single reagent (CellTiter-Glo® Reagent) directly to cells cultured in serum-supplemented medium. The homogeneous “add-mix-measure” format results in cell lysis and generation of a luminescent signal proportional to the amount of ATP present. The amount of ATP is directly proportional to the number of cells present in culture.
Cancer cells (3,000 cells/well) were harvested in a 96-well plate. Then, the cancer cells were treated with GS compounds and incubated for 24 hours. The MT Cell Viability Substrate, NanoLuc® Enzyme and cell culture medium was equilibrated to 37° C. The 2× RealTime-Glo™ reagent was prepared by diluting the MT Cell Viability Substrate and NanoLuc® Enzyme in 37° C. cell culture medium to a 2× concentration for each reagent. […] The cells were kept for ˜20 minutes in the cell culture incubator and then luminescence was measured by using a plate-reading luminometer. […]

HepG2 liver cancer tumor = experiment: HepG2 xenograft mouse model; format: in vivo, nu/nu mice; conditions: 20 mg/kg i.p. every 5 days, until 20 days post-treatment
Method: The effect of GS27 on liver cancer tumor growth in mice was evaluated in a HepG2 xenograft mouse model. HepG2 is a human liver cancer cell line, obtained from ATCC (cat. No HB-8065). Since hepatocellular carcinoma is often treated with the chemotherapeutic agent doxorubicin and embolization, results were compared to those obtained with doxorubicin.
(§1) Xenograft tumors were generated by injecting HepG2 liver cancer cells (2.5×10^6) into the right flank of female nu/nu mice (Charles River Laboratories). All mice developed tumors in 10 days with size of approximately 100 mm3. For each experiment, mice were randomly distributed into equal groups (4 mice per group) that were untreated, or treated by intraperitoneal injections every 5 days with 20 mg/kg GS27 or doxorubicin. Tumor volume (average, SD) was evaluated until 20 days post-treatment.

[1] = test system: HCT-116 colon cancer tumor; experiment: HCT116 xenograft mouse model; format: in vivo, nu/nu mice; conditions: 20 mg/kg i.p. every 5 days, until 20 days post-treatment
Method: The effect of GS27 on colon cancer tumor growth in mice was evaluated in a HCT116 xenograft mouse model. HCT-116 is a human colorectal cancer cell line that has a mutation in RAS proto-oncogene.
as §1, with “HCT-116 colon” for “HepG2 liver”, “(5×10^6)” for “(2.5×10^6)”, “GS19 (oleocanthal).” for “doxorubicin.”

[2] = test system: AsPC-1 pancreatic cancer tumor cells; experiment: Nile red lipid content of AsPC-1 xenograft tumors; format: in vivo, mice; conditions: 100 mg/kg i.p., tumors collected 24 days post-treatment
Method: Tumors derived from the mice treated by intraperitoneal injection with GS27 at 100 mg/kg were collected 24 days post-treatment. The tumors were evaluated for their lipid content using the dye nile red as a fluorescent vital stain for the detection of intracellular lipid droplets by fluorescence microscopy and flow cytofluorometry, as described previously (Greenspan, Peter et al., J Cell Biol, 1985, 100(3):965-973). […] Quantification of the data is shown in the bar graph.

[3] = Superoxide anion radical scavenging assay (NBT reduction); format: biochemical; conditions: NS = not statistically significant
Excerpt: These radicals may also play an important role in the peroxidation of unsaturated fatty acids and possibly other susceptible substances.
Under aerobic conditions, superoxide anion radicals are generated nonenzymatically in a NADH-PMS system by oxidation of […] (NADH) with phenazine methosulphate (PMS) in the presence of dissolved oxygen. (See, Nimse, Satish B. et al., RSC Adv, 2015, 5: 27986, “Free radicals, natural antioxidants, and their reaction mechanisms”). The superoxide anion radical O2.^− reduces the pale yellow colored nitroblue tetrazolium cation (NBT^2+) to a blue colored formazan dye, which is measured spectrophotometrically at 560 nm. The decrease of absorbance at 560 nm with antioxidant indicates the consumption of […] in the reaction mixture (FIG. 4).
The superoxide anion radical scavenging activity of each GS compound was determined using the nitro-blue tetrazolium (NBT) reduction method (Cos, Paul et al., J Nat Prod. 1998; 61(1): 71-76). The results were calculated as the percentage of inhibition according to the following formula: I (%)=100 [1−(S−SB)/(C−CB)] Where S, SB, C, and CB are the absorbance of the sample, the blank sample, the control, and the blank control, respectively.

Row | Compound | suppression of PANC-1 cancer cell growth (PANC-1 cancer cells) | reduction in the tumor size, HepG2 liver cancer (HepG2 liver cancer tumor) [%] | tumor size inhibition, HCT-116 colon cancer tumor growth [1] | reduction in the lipid content of AsPC-1 tumor cells [2] [%] | Superoxide Anion Radical Scavenging Assay IC50 [3] [μg extract/mL]
1 | C/C=C(/C=O)[C@@H](CC=O)CC(=O)SCCc1ccccc1 [GS27, S-phenethyl (3S,4E)-4-formyl-3-(2-oxoethyl)hex-4-enethioate] | best effect | 80 | > 60% | 55 | –
2 | C/C=C1/[C@H](OC2OC(CO)C(O)C(O)C2O)OC=C(C(=O)O)[C@H]1CC(=O)OCCc1ccc(O)c(O)c1 (stereo in doubt) [GS6, (2S,4S,E)-4-(2-(3,4-dihydroxyphenethoxy)-2-oxoethyl)-3-ethylidene-2{[(2R,3S,4R,5R,6S)-3,4,5-trihydroxy-6-(hydroxymethyl)tetrahydro-2H-pyran-2-yl]oxy}-3,4dihydro-2H-pyran-5-carboxylic acid] | – | – | – | – | 23.2
3 | C/C=C(/C=O)[C@@H](CC=O)CC(=O)OCCc1ccc(O)cc1 [GS19, (3S,4E)-4-formyl-3-(2-oxoethyl)-4-hexenoic acid 2-(4-hydroxyphenyl)ethyl ester, reference compound] | – | – | did not show any significant effect | – | –
4 | C/C=C1/[C@H](O[C@@H]2O[C@H](CO)[C@@H](O)[C@H](O)[C@H]2O)OC=C(C(=O)OC)[C@H]1CC(=O)OCCc1ccc(O)c(O)c1 [GS1, oleuropein] | – | – | – | – | 40.5
